“Also recorded” adds a separate entry of the source. Structures can show the parent of a compound that is named as a salt.
Assays:
rat tail [1] = test: Previous tests: injection of standard water-based mixtures in rats' tails; type: in vivo; settings: for Test halted because of detergent-like effects around the injection site: standard water-based mixtures, 25 mg/kg and over; for Reduction of detergent-like effects by adjustment of pH, or inclusion of buffers or serum albumin: water-based mixtures
rat tail [2] = test: Detergent-like effects at tail vein injection site in rats, repeated daily injection for 14 days (compound in Emulsion A); type: in vivo; settings: for Sloughing of tissue, incidence: mild sloughing in various areas (Compound A) / small dots at injection sites (Compound B); for Ischemia, incidence: by/at 14 days; for Average gain in body weight: over 14 days; for Edema, incidence: tail vein, by/at day 14; for Edema, day of onset: majority of rats; for Edema, day of onset in single late rat: one rat; for Overall damage to the rat tail / negative effects: compared with other compound or other vehicles
Experimental: A commercial 10% intravenous fat emulsion having 5% safflower oil and 5% soybean oil, USP, i.e. "Liposyn II 10%" described above, hereinafter referred to as Emulsion A, is employed.
The test compound is suspended or dissolved in Emulsion A at a concentration of 28 mg/ml. Probe sonification is employed to make a homogenous drug suspension or solution.
Rats are injected with 0.1 ml/100 g body weight. Control animals are injected with Emulsion A alone at the same volume as drug treated rats.
Each rat is placed in a plastic restraining tube, leaving its tail exposed A warm water soaked gauze pad is placed on the tail for approximately 10 seconds to help dilate the tail vein. A 25 gauge needle attached to a 1 cc tuberculine syringe is used to administer drug/control to the rat. To assure proper administration of doses, a negative pressure is achieved by drawing back slowly on the plunger of the syringe. A flashback of blood into the hub of the needle indicates proper placement of the needle, and drug/control is then administered slowly to the rat. After administration of dose, needle is removed and pressure with a clean gauze pad applied for approximately 10 seconds to keep fluid from flowing out of injection site. The rat is returned to its cage and procedure repeated for each animal.
Body weight and visual observations for detergent-like effects are recorded each day and at the end of the 14 day period; particularly for edema, ischemia and necrosis.
Tests were run to observe detergent-like effects on laboratory rats using as active ingredient either 3-[2-[octadecylaminocarbonyloxymethyl-tetrahydrofuran-2-ylmethoxy)-hydroxy-phosphinyloxy]-ethane]-thiazolium hydroxide inner salt-4-oxide (as Compound A) or cis-1-(2-[hydroxy[[tetrahydro-5-[(octadecylaminocarbonyl)oxy]methyl]furan- 2-yl]methoxyphosphinyloxy]ethyl)-quinolinium hydroxide, inner salt-4-oxide (as Compound B). Each of Compounds A and B was administered to a group of 5 rats.
Each of the two compounds were tested at 28 mg/kg suspended in the 10% intravenous fat emulsion. Rats were injected once a day for 14 consecutive days and monitored for the aforementioned signs of tail morbidity.

[3] = 28 mg/kg once daily in Emulsion A, 14 days
[4] = 28 mg/kg once daily in Emulsion A

| Test halted because of detergent-like effects around the injection site (rat tail [1]) | Reduction of detergent-like effects by adjustment of pH, or inclusion of buffers or serum albumin (rat tail [1]) | Edema, severity (rat tail [2]; [3]) | Edema, day of onset (rat tail [2]; [4]) | Edema, day of onset in single late rat (rat tail [2]; [4]) | Period for which tests could be run (rat tail [2]; in Emulsion A) | SMILES | Ischemia, severity (rat tail [2]; [3]) | Necrosis, incidence (rat tail [2]; [3]) | Necrosis, severity / lesion size (rat tail [2]; [3]) | Slightly larger area of sloughing, incidence (rat tail [2]; [3]) | Sloughing of tissue, incidence (rat tail [2]; [3]) | Ischemia, incidence (rat tail [2]; [4]) | Average gain in body weight (rat tail [2]; [4]) | Edema, incidence (rat tail [2]; [4]) | Overall damage to the rat tail / negative effects (rat tail [2]; in Emulsion A, 14 days) | Animals having necrotic tissue (rat tail [2]; in Emulsion A, 14 days) | Animals with sloughing of necrotic tissue (rat tail [2]; in Emulsion A, 14 days) |
| --- | --- | --- | --- | --- | --- | --- | --- | --- | --- | --- | --- | --- | --- | --- | --- | --- | --- |
| forced to halt after only a few days | had not proven satisfactory | mild edema | ~4 days | 10 days | 14 days | CCCCCCCCCCCCCCCCCCNC(=O)OC[C@H]1CC[C@@H](COP(=O)([O-])OCC[n+]2cccc3ccccc32)O1 (relative stereo) [Compound B, cis-1-(2-[hydroxy[[tetrahydro-5-[(octadecylaminocarbonyl)oxy]methyl]furan-2-yl]methoxyphosphinyloxy]ethyl)-quinolinium hydroxide, inner salt-4-oxide] | small areas of ischemia; also recorded: mild edema and ischemia | 5/5 | small areas of ischemia and necrosis; also recorded: very small areas; also recorded: necrotic lesions being much smaller | 1/5 | 2/5 | 5/5 | 29.6% | 5/5 | least amount of damage to the rat tail; also recorded: visibly better |  |  |
| forced to halt after only a few days | had not proven satisfactory | moderate edema | 2 to 4 days | 13 days | 14 days | CCCCCCCCCCCCCCCCCCNC(=O)OCC1(COP(=O)([O-])OCC[n+]2ccsc2)CCCO1 (stereo not drawn) [Compound A] | moderate edema and ischemia | All rats had mottled necrotic areas |  |  | 3/4 | All rats displayed ischemia of entire tail | 24% | All rats showed some amount of edema | greatly reduced the negative effects | 100% | 75% |

Source: patent publication US5010067A, “Triglyceride-water emulsion pharmaceutical vehicles” (Sandoz Pharmaceuticals Corp., priority 1988, dated 1991)
